From patent US4160095A, “7,8-Didehydro-PGI1 amides” (The Upjohn Company, priority 1978, dated 1979)

System: endoperoxide cyclooxygenase (PG synthetase)
Experiment: Inhibition of oxygen uptake in the conversion of unsaturated fatty acid to prostaglandin endoperoxides (cyclooxygenase / PG synthetase inhibition, standard in vitro laboratory test)
Assay type: biochemical
Description: The novel prostacyclin analogs disclosed herein are all inhibitors of endoperoxide cyclooxygenase, an enzyme which converts unsaturated fatty acids (e.g., arachadonic acid) to prostaglandin endoperoxide intermediate (e.g., PGH2). The inhibition of this enzyme (also known as PG synthetase) is established as a standard in vitro laboratory test which measures oxygen uptake in the conversion of the unsaturated fatty acid to the endoperoxides, e.g., [drawing 22]
The efficacy of the novel prostacyclin analogs herein as inhibitors of cyclooxygenase (PG synthetase) is indicated in the following comparison between 2-(acetylozy)benzoic acid (aspirin) and 7,8-didehydro-6β-PGI1, methyl ester:
For further description of PG synthetase inhibition, see Vane, Nature New Biology, 231-232 (1971) and Takeguchi, et al., Prostaglandins 2:169 (1972).

| Compound | Percent inhibition of Oxygen Uptake (Concentration 5 × 10^-4 M) | Percent inhibition of Oxygen Uptake (Concentration 5 × 10^-5 M, result in words) |
| --- | --- | --- |
| CC(=O)Oc1ccccc1C(=O)O [2-(Acetyloxy)-benzoic acid, 2-(acetyloxy)benzoic acid] | 100% | Inactive |
| CCCCC[C@H](O)/C=C/[C@@H]1C2=C[C@H](CCCCC(=O)OC)O[C@H]2C[C@H]1O [7,8-Didehydro-6β-PGI methyl ester, 7,8-didehydro-6β-PGI1, methyl ester] | 46% |  |
